Data as given in PMC11259170, “Small-molecule probe for IBD risk variant GPR65 I231L alters cytokine signaling networks through positive allosteric modulation” (Science Advances, 2024).
Read-outs that look alike come from different tables or passages of the source.

Experiments:
[1] = Solubility in phosphate buffer; assay type: physicochemical; conditions: read-out: Solubility
[2] = test system: GFP-expressing HeLa cells; assay: cAMP detection in HeLa expression cell line, GFP control; assay type: cell-based, human; conditions: Homo sapiens, HeLa, 2nd GFP column pair; relative to 100uM forskolin (100%) and DMSO (0%); NA = no activity; read-out: GFP Max Activity %
Summary of the method: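 HeLa cells stably expressing C-terminally V5-tagged receptor or GFP (lentiviral, puromycin 3 μg/ml) stimulated at 1500 cells per well for 30 min at RT with compound (10 mM DMSO stock) in stimulation buffer at pH 7.2. cAMP detected by Lance Ultra TR-FRET after lysis and 1 h detection, excitation 337 nm, emission 620/665 nm.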

mGPR65 = target: T1, mGPR65 (Mus musculus, UniProt Q61038); assay: cAMP detection in HeLa expression cell line, mGPR65; assay type: cell-based; conditions: for Emax: HeLa, relative to 100uM forskolin (100%) and DMSO (0%), read-out: mGPR Max Activity %; for EC50: mGPR EC50 (uM)
T1 construct: expressed in transfected cells; host or cells: HeLa (ATCC CCL-2), lentiviral transduction, pLX317
Summary of the method: (§1)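 TR-FRET cAMP read-out (Lance Ultra; ex 337 nm, em 620 and 665 nm) after 1 h detection in the dark, following a 30 min RT stimulation of 1500 cells per well in pH 7.2 stimulation buffer with compound supplied as 10 mM DMSO stock. Cells: lentivirally transduced HeLa lines carrying V5-tagged GPCR or GFP, kept under 3 μg/ml puromycin.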

Lipophilicity (logD) = assay type: physicochemical; conditions: pH 7.4; pH7.4; read-out: LogD (pH7.4)
human GPR4 (hGPR4) = target: T2, human GPR4 (hGPR4) (Homo sapiens, UniProt P46093); assay: cAMP detection in HeLa expression cell line, hGPR4; assay type: cell-based; conditions: for EC50: pH 7.2, 30 min
T2 construct: expressed in transfected cells; host or cells: HeLa (ATCC CCL-2), lentiviral transduction, pLX317
Method: HeLa stable expression cell lines were produced by lentiviral transduction. Briefly, lentiviral plasmids for each GPCR with a C-terminal V5 Tag ([…]) were made in a pLX317 backbone using competent Escherichia coli (New England Biolabs, C3050H). Lenti-X 293 T (Takara, 632810) cells were transfected with the lentiviral plasmids to produce virus. Low-passage HeLa cells (American Type Culture Collection, CCL-2) were then transduced with lentivirus. After 48 hours, HeLa cells were cultured under selection with puromycin (3 μg/ml) and allowed to recover and expand before storing stocks in liquid nitrogen.
cAMP was measured in cells using the Lance Ultra cAMP Kit. HeLa cells were cultured under puromycin (3 μg/ml) selection. One day before the experiment, cells were seeded in T75 flasks and allowed to adhere overnight. On the day of the experiment, cells were washed twice with Dulbecco’s PBS and lifted using prewarmed 1× versene solution (Gibco, 15040066). Cells were counted in HBSS (Gibco, 14025092) and then resuspended in stimulation buffer prepared according to the manufacturer’s instructions and adjusted to pH 7.2 using 1 M sodium hydroxide. Cells were added to the plate at a density of 1500 cells per well in white opaque 384-well assay ready microplates containing 100 nl of 10 mM compound in DMSO. Cells were stimulated for 30 min at RT, then lysed and incubated with detection reagents for 1 hour in the dark at RT. Plates were read on BMG Labtech PHERAstar FSX (excitation, 337 nm; emission, 620 and 665 nm). Data analysis was performed using GraphPad Prism.

hGPR65 = target: T3, hGPR65 (Homo sapiens, UniProt Q8IYL9); assay: cAMP detection in HeLa expression cell line, hGPR65; assay type: cell-based; conditions: for Emax: HeLa, relative to 100uM forskolin (100%) and DMSO (0%), read-out: hGPR Max Activity %
T3 construct: expressed in transfected cells; host or cells: HeLa (ATCC CCL-2), lentiviral transduction, pLX317
Summary of the method: as §1

hGPR4-SmBiT = target: T4, hGPR4-SmBiT (Homo sapiens, UniProt P46093); assay: Nano-BiT target engagement, LgBiT-mGs recruitment to hGPR4-SmBiT; assay type: cell-based; conditions: 10 μM
T4 construct: expressed in transfected cells; host or cells: Expi293F (Gibco), transient transfection
Method: (§2) Target engagement was measured in Expi293F (Gibco, 100044202) cells using the Nano-Glo Live Cell Assay System (Promega, N2011). Nano-BiT plasmids were cloned from GPR65-, GPR4-, and GPR68-Tango plasmids. GPR65-Tango (Addgene plasmid # 66370; http://n2t.net/addgene:66370; RRID:Addgene_66370), GPR4-Tango (Addgene plasmid # 66358; http://n2t.net/addgene:66358; RRID:Addgene_66358), and GPR68-Tango (Addgene plasmid # 66371; http://n2t.net/addgene:66371; RRID:Addgene_66371) were gifts from Bryan Roth. Expi293F cells were transfected 1 day before kinetics with 500 ng of each plasmid using ExpiFectamine 293 Transfection Kit (Gibco, A14525). After 24 hours, cells were collected, washed, and resuspended in room temperature 0.1% PBS-BSA, adjusted to pH 7.4 using 1 M NaOH. Cells were transferred to white opaque 96-well microplates (100 μl per well, PerkinElmer, 6005290), followed by addition of the Nano-Glo Live Cell Reagent (25 μl per well). Baseline luminescence was measured for 10 cycles (1 cycle = 90 s) before adding compounds. All luminescence measurements were made on BMG Labtech PHERAstar FSX. Data analysis was performed using GraphPad Prism.

mGPR65-SmBiT = target: T5, mGPR65-SmBiT (Mus musculus, UniProt Q61038); assay: Nano-BiT target engagement, LgBiT-mGs recruitment to mGPR65-SmBiT; assay type: cell-based; conditions: 10 μM
T5 construct: expressed in transfected cells; host or cells: Expi293F (Gibco), transient transfection
Method: as §2

hGPR65-SmBiT = target: T6, hGPR65-SmBiT (Homo sapiens, UniProt Q8IYL9); assay: Nano-BiT target engagement, LgBiT-mGs recruitment to hGPR65-SmBiT in Expi293F cells; assay type: cell-based; conditions: 10 μM
T6 construct: expressed in transfected cells; host or cells: Expi293F (Gibco), transient transfection
Method: as §2

[3] = 2nd mGPR column pair, NA = no activity
[4] = first pair of columns, pH 7.2, 30 min
[5] = second pair of columns, pH 7.2, 30 min
[6] = 1st hGPR column pair, NA = no activity
[7] = 2nd hGPR column pair, NA = no activity
[8] = hGPR EC50 (uM), NA = no activity

T3 sequence (Q8IYL9 whole entry): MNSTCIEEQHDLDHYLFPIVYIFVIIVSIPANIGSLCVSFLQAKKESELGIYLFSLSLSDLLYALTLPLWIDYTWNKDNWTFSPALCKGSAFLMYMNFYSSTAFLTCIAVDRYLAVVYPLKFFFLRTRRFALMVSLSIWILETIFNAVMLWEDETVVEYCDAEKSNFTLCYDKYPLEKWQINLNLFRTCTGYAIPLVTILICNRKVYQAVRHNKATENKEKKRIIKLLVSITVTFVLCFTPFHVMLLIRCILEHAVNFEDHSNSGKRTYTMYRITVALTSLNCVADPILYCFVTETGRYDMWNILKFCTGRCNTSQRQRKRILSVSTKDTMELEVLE
T2 sequence (P46093 whole entry): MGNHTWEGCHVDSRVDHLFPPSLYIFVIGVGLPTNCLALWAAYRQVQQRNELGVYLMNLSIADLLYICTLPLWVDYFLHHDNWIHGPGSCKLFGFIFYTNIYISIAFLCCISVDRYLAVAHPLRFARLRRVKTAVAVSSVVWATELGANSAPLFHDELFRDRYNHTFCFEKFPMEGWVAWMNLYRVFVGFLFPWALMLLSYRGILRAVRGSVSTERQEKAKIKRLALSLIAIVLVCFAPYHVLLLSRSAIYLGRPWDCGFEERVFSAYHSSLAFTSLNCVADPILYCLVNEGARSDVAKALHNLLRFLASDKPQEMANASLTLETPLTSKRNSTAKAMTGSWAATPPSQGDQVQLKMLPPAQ
T1 sequence (Q61038 whole entry): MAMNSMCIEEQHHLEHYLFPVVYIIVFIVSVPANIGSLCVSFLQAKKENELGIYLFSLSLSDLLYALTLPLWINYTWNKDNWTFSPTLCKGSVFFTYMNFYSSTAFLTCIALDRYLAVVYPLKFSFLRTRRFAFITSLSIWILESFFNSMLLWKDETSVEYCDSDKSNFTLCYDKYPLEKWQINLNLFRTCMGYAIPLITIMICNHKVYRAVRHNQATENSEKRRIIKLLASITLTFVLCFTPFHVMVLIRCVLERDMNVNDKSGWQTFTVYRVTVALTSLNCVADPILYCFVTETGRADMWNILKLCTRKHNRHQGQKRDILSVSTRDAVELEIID
T6 sequence (Q8IYL9 whole entry): as the sequence (Q8IYL9 whole entry) above
T5 sequence (Q61038 whole entry): as the sequence (Q61038 whole entry) above
T4 sequence (P46093 whole entry): as the sequence (P46093 whole entry) above

Cc1ccc(NC(=O)c2cnn3c(O)cc(-c4ccc(F)c(Cl)c4)nc23)cc1 [BRD5067, O=C(NC1=CC=C(C)C=C1)C2=C3N(N=C2)C(O)=CC(C4=CC=C(F)C(Cl)=C4)=N3]
solubility [1]: < 1.56 µM | Emax [2]: 1.17% | Emax (mGPR65; [3]): 37.6% | Emax (mGPR65; NA = no activity): 41.4% | EC50 (mGPR65; [3]): 0.537 µM | EC50 (mGPR65; [4]): 0.449 µM | EC50 (mGPR65; [5]): 0.23 µM | EC50 (mGPR65; NA = no activity): 0.328 µM | cAMP activity, mGPR65 (mGPR65; pH 7.2): at least 40% | logD (Lipophilicity (logD)): > 4.89 | EC50 (human GPR4 (hGPR4); GPR4 EC50 (uM)): 0.494 µM | EC50 (human GPR4 (hGPR4); GPR4 EC50, second pair of columns): 0.687 µM | cAMP induction in the hGPR4 cell line (human GPR4 (hGPR4); pH 7.2): additionally induced cAMP | Emax (hGPR65; [6]): 74.6% | Emax (hGPR65; [7]): 69.2% | EC50 (hGPR65; [8]): 0.232 µM | EC50 (hGPR65; hGPR EC50 (uM), pH 7.2, 30 min): 0.534 µM | EC50 (hGPR65; hGPR EC50, NA = no activity): 0.583 µM | EC50 (hGPR65; hGPR EC50, pH 7.2, 30 min): 0.554 µM | cAMP activity, hGPR65 (hGPR65; pH 7.2): at least 40%

COCc1ccc(-c2cc(O)n3ncc(C(=O)Nc4ccc(C(C)C)cc4)c3n2)cc1 [BRD2166, COCc1ccc(cc1)-c1cc(O)n2ncc(C(=O)Nc3ccc(cc3)C(C)C)c2n1]
Emax (mGPR65; [3]): 31.2% | Emax (mGPR65; NA = no activity): 39.3% | EC50 (mGPR65; [3]): 0.347 µM | EC50 (mGPR65; [4]): 0.618 µM | EC50 (mGPR65; [5]): 0.372 µM | EC50 (mGPR65; NA = no activity): 0.362 µM | cAMP activity, mGPR65 (mGPR65; pH 7.2): at least 40% | cAMP relative to DMSO in the hGPR4 cells (human GPR4 (hGPR4); highest concentration tested): decrease in cAMP | Emax (hGPR65; [6]): 75% | Emax (hGPR65; [7]): 73.7% | EC50 (hGPR65; [8]): 2.08 µM | EC50 (hGPR65; hGPR EC50 (uM), pH 7.2, 30 min): 2.94 µM | EC50 (hGPR65; hGPR EC50, NA = no activity): 2.12 µM | EC50 (hGPR65; hGPR EC50, pH 7.2, 30 min): 2.85 µM | cAMP activity, hGPR65 (hGPR65; pH 7.2): at least 40% | cAMP production relative to BRD2813, hGPR65 (hGPR65; pH 7.2): little effect on cAMP production

Cc1ccc(NC(=O)c2cnn3c(O)cc(-c4ccc(COC(C)C)c(Cl)c4)nc23)cc1 [BRD5059, O=C(NC1=CC=C(C)C=C1)C2=C3N(N=C2)C(O)=CC(C4=CC=C(COC(C)C)C(Cl)=C4)=N3]
solubility [1]: < 1.56 µM | response in cells expressing hGPR4-SmBiT (hGPR4-SmBiT): failing to elicit responses | activity for mGPR65 among prioritized molecules (mGPR65; 1.56 μM, pH 7.2): highest activity | Emax (mGPR65; [3]): 42.2% | Emax (mGPR65; NA = no activity): 51% | EC50 (mGPR65; [3]): 0.379 µM | EC50 (mGPR65; [4]): 0.591 µM | EC50 (mGPR65; [5]): 0.546 µM | EC50 (mGPR65; NA = no activity): 0.505 µM | cAMP activity, mGPR65 (mGPR65; pH 7.2): at least 40% | mGs recruitment / engagement of mGPR65 (mGPR65-SmBiT): showed engagement | activity after HCl versus water, mGPR65 (mGPR65-SmBiT; HCl or H2O at cycle 10): showed activity when preceded by the addition of HCl but not water | logD (Lipophilicity (logD)): > 5.25 | mGs recruitment / engagement of hGPR65 (hGPR65-SmBiT): showed engagement | activity after HCl versus water, hGPR65 (hGPR65-SmBiT; HCl or H2O at cycle 10): showed activity when preceded by the addition of HCl but not water | EC50 (human GPR4 (hGPR4); GPR4 EC50 (uM)): 1.68 µM | activity for hGPR65 among prioritized molecules (hGPR65; 1.56 μM, pH 7.2): highest activity | Emax (hGPR65; [6]): 76% | Emax (hGPR65; [7]): 75.4% | EC50 (hGPR65; [8]): 0.577 µM | EC50 (hGPR65; hGPR EC50 (uM), pH 7.2, 30 min): 0.478 µM | EC50 (hGPR65; hGPR EC50, NA = no activity): 0.288 µM | EC50 (hGPR65; hGPR EC50, pH 7.2, 30 min): 0.618 µM | cAMP activity, hGPR65 (hGPR65; pH 7.2): at least 40%
